Data: publication PMC12203311, “Design, synthesis, in silico and in vitro evaluation of pyrrole–indole hybrids as dual tubulin and aromatase inhibitors with potent anticancer activities” (RSC Advances, 2025)

Tests used:
K-562 = assay: NCI60 five-dose screen; format: cell-based; conditions: Homo sapiens, K562, K-562, leukemia; for CC50: read-out: LC50 (the source's name)
A549/ATCC = assay: NCI60 five-dose screen; format: cell-based; conditions: Homo sapiens, NSC lung cancer; for CC50: read-out: LC50 (the source's name)
HOP-62 = assay: NCI60 five-dose screen; format: cell-based; conditions: Homo sapiens, HOP-62, NSC lung cancer; for CC50: read-out: LC50 (the source's name)
HOP-92 = assay: NCI60 five-dose screen; format: cell-based; conditions: Homo sapiens, HOP-92, NSC lung cancer; for CC50: read-out: LC50 (the source's name)
NCI-H226 = assay: NCI60 five-dose screen; format: cell-based; conditions: Homo sapiens, NCI-H226, NSC lung cancer; for CC50: read-out: LC50 (the source's name)
NCI-H460 = assay: NCI60 five-dose screen; format: cell-based; conditions: Homo sapiens, NCI-H460, NSC lung cancer; for CC50: read-out: LC50 (the source's name)
HCT-116 = assay: NCI60 five-dose screen; format: cell-based; conditions: Homo sapiens, HCT-116, colon cancer; for CC50: read-out: LC50 (the source's name)
HCT-15 = assay: NCI60 five-dose screen; format: cell-based; conditions: Homo sapiens, HCT-15, colon cancer; for CC50: read-out: LC50 (the source's name)
HT29 = assay: NCI60 five-dose screen; format: cell-based; conditions: Homo sapiens, HT-29, HT29, colon cancer; for CC50: read-out: LC50 (the source's name)
SF-539 = assay: NCI60 five-dose screen; format: cell-based; conditions: Homo sapiens, SF-539, CNS cancer; for CC50: read-out: LC50 (the source's name)
SNB-75 = assay: NCI60 five-dose screen; format: cell-based; conditions: Homo sapiens, SNB-75, CNS cancer; for CC50: read-out: LC50 (the source's name)
LOX IMVI = assay: NCI60 five-dose screen; format: cell-based; conditions: Homo sapiens, melanoma; for CC50: read-out: LC50 (the source's name)
OVCAR-3 = assay: NCI60 five-dose screen; format: cell-based; conditions: Homo sapiens, OVCAR-3, ovarian cancer; for CC50: read-out: LC50 (the source's name)
OVCAR-4 = assay: NCI60 five-dose screen; format: cell-based; conditions: Homo sapiens, OVCAR-4, ovarian cancer; for CC50: read-out: LC50 (the source's name)
A498 = assay: NCI60 five-dose screen; format: cell-based; conditions: Homo sapiens, A498, renal cancer; for CC50: read-out: LC50 (the source's name)
ACHN = assay: NCI60 five-dose screen; format: cell-based; conditions: Homo sapiens, renal cancer; for CC50: read-out: LC50 (the source's name)
CAKI-1 = assay: NCI60 five-dose screen; format: cell-based; conditions: Homo sapiens, CAKI-1, renal cancer; for CC50: read-out: LC50 (the source's name)
PC-3 = assay: NCI60 five-dose screen; format: cell-based; conditions: Homo sapiens, PC-3, prostate cancer; for CC50: read-out: LC50 (the source's name)
DU-145 = assay: NCI60 five-dose screen; format: cell-based; conditions: Homo sapiens, DU-145, prostate cancer; for CC50: read-out: LC50 (the source's name)
BT-549 = assay: NCI60 five-dose screen; format: cell-based; conditions: Homo sapiens, BT-549, breast cancer; for CC50: read-out: LC50 (the source's name)
[1] = test system: T47D breast cancer cell line; assay: Cytotoxicity MTT assay, T47D; format: cell-based, human; conditions: Homo sapiens, T47D; MTT, 48 hours
Outline: (§1)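 T47D breast cancer and L929 mouse fibroblasts in DMEM/10% FBS, seeded at 10 000 cells/well and grown overnight. Compounds at designated concentrations for 48 h at 37 °C, then 0.5 mg/mL MTT for 3 h. Formazan dissolved in DMSO, A570 read, viability as % of DMSO vehicle.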

[2] = Cytotoxicity MTT assay, L929; format: cell-based, mouse; conditions: mouse, L929 fibroblast cells; MTT, 48 hours
Outline: as §1

[3] = test system: L929 normal mouse fibroblast cell line; assay: Cytotoxicity MTT assay, L929; format: cell-based; conditions: IC50 (L929)/IC50 (T47D)
Outline: as §1

SMILES: O=C(N/N=C/c1cc(Br)c(Br)[nH]1)c1[nH]c2ccc(Br)cc2c1-c1ccccc1 [Derivative 3f, (E)-5-Bromo-N′-((4,5-dibromo-1H-pyrrol-2-yl)methylene)-3-phenyl-1H-indole-2-carbohydrazide]
- GI50 (K-562): 1.93 µM
- CC50 (K-562): 76.4 µM
- GI50 (A549/ATCC): 3.11 µM
- CC50 (A549/ATCC): 37.6 µM
- GI50 (HOP-62): 3.52 µM
- CC50 (HOP-62): > 100 µM
- GI50 (HOP-92): 1.88 µM
- CC50 (HOP-92): 46 µM
- GI50 (NCI-H226): 2.28 µM
- CC50 (NCI-H226): 32.5 µM
- GI50 (NCI-H460): 2.53 µM
- CC50 (NCI-H460): 32.7 µM
- GI50 (HCT-116): 3.24 µM
- CC50 (HCT-116): > 100 µM
- GI50 (HCT-15): 2.7 µM
- CC50 (HCT-15): 33.1 µM
- GI50 (HT29): 2.33 µM
- CC50 (HT29): 20.8 µM
- GI50 (SF-539): 1.78 µM
- CC50 (SF-539): 15.7 µM
- GI50 (SNB-75): 1.08 µM
- CC50 (SNB-75): 64.4 µM
- GI50 (LOX IMVI): 2.31 µM
- CC50 (LOX IMVI): 31.8 µM
- GI50 (OVCAR-3): 2.3 µM
- CC50 (OVCAR-3): 24.5 µM
- GI50 (OVCAR-4): 5.2 µM
- CC50 (OVCAR-4): 45.8 µM
- GI50 (A498): 11.1 µM
- CC50 (A498): 49.4 µM
- GI50 (ACHN): 2.59 µM
- CC50 (ACHN): 35.5 µM
- GI50 (CAKI-1): 1.38 µM
- CC50 (CAKI-1): 40.9 µM
- GI50 (PC-3): 2.29 µM
- CC50 (PC-3): 63.3 µM
- GI50 (DU-145): 3.18 µM
- CC50 (DU-145): 33.9 µM
- GI50 (BT-549): 3.69 µM
- CC50 (BT-549): 90.8 µM
- IC50 [1]: 19.1 ± 5.4 µM
- IC50 at 48 h [2]: 47.9 ± 0.5 µM
- Selectivity index (SI) [3]: 2.51

SMILES: CCc1ccc(/C=N/NC(=O)c2[nH]c3ccc(Br)cc3c2-c2ccccc2)[nH]1 [Derivative 3s, (E)-5-Bromo-N′-((5-ethyl-1H-pyrrol-2-yl)methylene)-3-phenyl-1H-indole-2-carbohydrazide]
- GI50 (K-562): 0.338 µM
- CC50 (K-562): > 100 µM
- GI50 (A549/ATCC): 0.399 µM
- CC50 (A549/ATCC): 70.3 µM
- GI50 (HOP-62): 0.861 µM
- CC50 (HOP-62): 46.2 µM
- GI50 (HOP-92): 2.01 µM
- CC50 (HOP-92): 40.1 µM
- GI50 (NCI-H226): 0.506 µM
- CC50 (NCI-H226): 32.3 µM
- GI50 (NCI-H460): 0.396 µM
- CC50 (NCI-H460): 43.5 µM
- GI50 (HCT-116): 0.325 µM
- CC50 (HCT-116): 31.9 µM
- GI50 (HCT-15): 0.349 µM
- CC50 (HCT-15): 37.4 µM
- GI50 (HT29): 0.298 µM
- CC50 (HT29): 33.8 µM
- GI50 (SF-539): 0.225 µM
- CC50 (SF-539): 29.8 µM
- GI50 (SNB-75): 0.285 µM
- CC50 (SNB-75): 54.1 µM
- GI50 (LOX IMVI): 0.722 µM
- CC50 (LOX IMVI): 36.1 µM
- GI50 (OVCAR-3): 0.356 µM
- CC50 (OVCAR-3): 36.1 µM
- GI50 (OVCAR-4): 2.41 µM
- CC50 (OVCAR-4): 53.7 µM
- GI50 (A498): 5.59 µM
- CC50 (A498): 47.2 µM
- GI50 (ACHN): 0.861 µM
- CC50 (ACHN): 36.6 µM
- GI50 (CAKI-1): 1.04 µM
- CC50 (CAKI-1): 56.2 µM
- GI50 (PC-3): 0.532 µM
- CC50 (PC-3): > 100 µM
- GI50 (DU-145): 0.418 µM
- CC50 (DU-145): 36.7 µM
- GI50 (BT-549): 0.979 µM
- CC50 (BT-549): 30.3 µM
- IC50 [1]: 3.8 ± 1 µM
- IC50 at 48 h [2]: 19.5 ± 11.8 µM
- Selectivity index (SI) [3]: 5.13
